Data: publication PMC2566891 (Nucleic Acids Research, 2008)

Test system: 14-3-3
Test: Binding of p53 peptides to 14-3-3, isoform not given
Details: isoform not specified; wild-type p53CT tested up to 200 µM; pS392 by AUC

binding to 14-3-3 (in words): very weak binding
Substance: WT TC (293–393): wild-type tetramerization plus C-terminal domains of p53 (293–393), semi-synthetic
